How the values were obtained:
Assay type in all cases: in vivo
Nilaparvata lugens = test: Rice brown plant hopper (Nilaparvata lugens) test on sprayed rice seedlings; conditions: 72 h, read-out: mortality in comparison with untreated controls
Procedure: B.8 Rice Brown Plant Hopper (Nilaparvata lugens)
(§1) Rice seedlings were cleaned and washed 24 hours before spraying. The active compounds was formulated in 50:50 acetone:water (vol:vol) and 0.1% vol/vol surfactant (EL 620) was added. Potted rice seedlings were sprayed with 5 ml test solution, air dried, placed in cages and inoculated with 10 adults. Treated rice plants were kept at about 28-29° C. and relative humidity of about 50-60%. Percent mortality was recorded after 72 hours.

Nephotettix virescens = test: Rice green leafhopper (Nephotettix virescens) test on sprayed rice seedlings; conditions: 72 h, read-out: mortality in comparison with untreated controls
Procedure: B.7 Rice Green Leafhopper (Nephotettix virescens)
as §1, with “compounds were” for “compounds was”, “acetone:water (vol:vol),” for “acetone:water (vol:vol)”

Myzus persicae = test: Green peach aphid (Myzus persicae) spray test on infested bell pepper plants; conditions: 120 h, read-out: mortality in comparison with untreated controls
Procedure: B.1 Green Peach Aphid (Myzus persicae)
The active compounds were formulated by a Tecan liquid handler in 100% cyclohexanone as a 10,000 ppm solution supplied in tubes. The 10,000 ppm solution was serially diluted in 100% cyclohexanone to make interim solutions. These served as stock solutions for which final dilutions were made by the Tecan in 50% acetone:50% water (v/v) into 5 or 10 ml glass vials. A nonionic surfactant (Kinetic®) was included in the solution at a volume of 0.01% (v/v). The vials were then inserted into an automated electrostatic sprayer equipped with an atomizing nozzle for application to plants/insects.
Bell pepper plants at the first true-leaf stage were infested prior to treatment by placing heavily infested leaves from the main colony on top of the treatment plants. Aphids were allowed to transfer overnight to accomplish an infestation of 30-50 aphids per plant and the host leaves were removed. The infested plants were then sprayed by an automated electrostatic plant sprayer equipped with an atomizing spray nozzle. The plants were dried in the sprayer fume hood, removed, and then maintained in a growth room under fluorescent lighting in a 24-hr photoperiod at about 25° C. and about 20-40% relative humidity. Aphid mortality on the treated plants, relative to mortality on untreated control plants, was determined after 5 days.

Megoura viciae = test: Vetch aphid (Megoura viciae) broad bean leaf disk microtiter test; conditions: foliar, 120 h, read-out: mortality in comparison with untreated controls
Procedure: B.2 Vetch Aphid (Megoura viciae)
For evaluating control of vetch aphid (Megoura viciae) through contact or systemic means the test unit consisted of 24-well-microtiter plates containing broad bean leaf disks.
The compounds were formulated using a solution containing 75% v/v water and 25% v/v DMSO. Different concentrations of formulated compounds were sprayed onto the leaf disks at 2.5 μl, using a custom built micro atomizer, at two replications.
After application, the leaf disks were air-dried and 5-8 adult aphids were placed on the leaf disks inside the microtiter plate wells. The aphids were then allowed to suck on the treated leaf disks and were incubated at about 23±1° C. and about 50±5% relative humidity for 5 days. Aphid mortality and fecundity was then visually assessed.

Aphis craccivora = test: Cowpea aphid (Aphis craccivora) spray test on potted cowpea plants; conditions: 72 h, read-out: mortality in comparison with untreated controls
Procedure: B.4 Cowpea Aphid (Aphis craccivora)
The active compound was dissolved at the desired concentration in a mixture of 1:1 (vol:vol) distilled water: acetone. Surfactant (Alkamuls® EL 620) was added at a rate of 0.1% (vol/vol). The test solution was prepared at the day of use.
Potted cowpea plants were colonized with approximately 50-100 aphids of various stages by manually transferring a leaf tissue cut from infested plant 24 hours before application. Plants were sprayed after the pest population has been recorded. Treated plants were maintained on light carts at about 28° C. Percent mortality was assessed after 72 hours.

Dichromothrips corbetti = test: Orchid thrips (Dichromothrips corbetti) floral-immersion test; conditions: 72 h, read-out: mortality in comparison with untreated controls
Procedure: B.6 Orchid Thrips (Dichromothrips corbetti)
Dichromothrips corbetti adults used for bioassay were obtained from a colony maintained continuously under laboratory conditions. For testing purposes, the test compound is diluted in a 1:1 mixture of acetone:water (vol:vol), plus 0.01% vol/vol Alkamuls® EL 620 surfactant.
Thrips potency of each compound was evaluated by using a floral-immersion technique. Plastic petri dishes were used as test arenas. All petals of individual, intact orchid flowers were dipped into treatment solution and allowed to dry. Treated flowers were placed into individual petri dishes along with about 20 adult thrips. The petri dishes were then covered with lids. All test arenas were held under continuous light and a temperature of about 28° C. for duration of the assay. After 3 days, the numbers of live thrips were counted on each flower, and along inner walls of each petri dish. The percentmortality was recorded 72 hours after treatment.

CSCC(=O)/N=c1\ccccn1Cc1ccc(Cl)nc1 [E1-9, N-[1-[(6-chloro-3-pyridyl)methyl]-2-pyridylidene]-2-methylsulfanyl-acetamide]
≥ 75%: mortality at 500 ppm (Nilaparvata lugens) | mortality at 500 ppm (Nephotettix virescens) | mortality at 2500 ppm (Myzus persicae) | mortality at 2500 ppm (Megoura viciae) | mortality at 500 ppm (Aphis craccivora)

CS(=O)(=O)CC(=O)N=c1ccccn1Cc1ccc(Cl)nc1 [E1-10, N-[1-[(6-chloro-3-pyridyl)methyl]-2-pyridylidene]-2-methylsulfonyl-acetamide]
≥ 75%: mortality at 500 ppm (Nilaparvata lugens) | mortality at 500 ppm (Dichromothrips corbetti) | mortality at 500 ppm (Nephotettix virescens) | mortality at 2500 ppm (Myzus persicae) | mortality at 2500 ppm (Megoura viciae) | mortality at 500 ppm (Aphis craccivora)

— US20160050923A1, “N-SUBSTITUTED ACYL-IMINO-PYRIDINE COMPOUNDS AND DERIVATIVES FOR COMBATING ANIMAL PESTS” (BASF SE, priority 2013, published 2016)
